In assay [1] the target is T1, human GPR139 receptor (Homo sapiens, UniProt Q6DWJ6).
T1 construct: expressed in transfected cells; host or cells: T-REx-CHO (Thermo Fisher Scientific), doxycycline-induced
T1 sequence (Q6DWJ6 1-353): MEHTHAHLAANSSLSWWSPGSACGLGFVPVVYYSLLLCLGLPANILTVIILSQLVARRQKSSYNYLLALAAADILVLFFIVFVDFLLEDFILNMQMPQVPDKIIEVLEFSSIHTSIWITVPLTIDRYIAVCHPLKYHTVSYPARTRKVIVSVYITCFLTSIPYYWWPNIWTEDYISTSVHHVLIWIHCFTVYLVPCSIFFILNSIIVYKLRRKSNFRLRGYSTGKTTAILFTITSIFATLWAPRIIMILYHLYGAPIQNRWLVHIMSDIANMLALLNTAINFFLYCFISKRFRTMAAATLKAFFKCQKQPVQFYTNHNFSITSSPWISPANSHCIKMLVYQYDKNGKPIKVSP
Nature of the assay: GPR139 Competition Binding (membrane-based, tritium-labeled ligand). The conditions noted are these: T-REx-CHO membranes with human GPR139; 6.5 nM tritium-labeled ligand; 11-point curve, 30 μM maximum concentration; read-out: GPR139 Binding Affinity (pKi) (converted). In a few lines:
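Membranes came from doxycycline-induced T-REx-CHO cells expressing human GPR139. They were incubated 20 min at room temperature with 6.5 nM tritiated ligand and compound (11 points, top 30 μM) in HEPES pH 7.3 buffer with MgCl2/CaCl2. Filter-bound counts gave Ki by four-parameter fit, reported as pKi.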

The target in assay [2] is T1, human GPR139 receptor. The assay is described as follows: Measurement of GPR139 Activation Via Calcium Signaling (FLIPR, T-REx-CHO cells). Format: cell-based. The following applies: T-REx-CHO cells stably expressing human GPR139, 11-point dose response, 10 μM maximum concentration, read-out: GPR139 Potency (pEC50) (converted). The essentials: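 Calcium flux read by FLIPR for 1 min after adding compounds (11 concentrations, maximum 10 μM) to doxycycline-induced (2 μg/mL, 17 h) T-REx-CHO cells expressing human GPR139. Cells dye-loaded 40 min at 37 °C in HBSS, 1 mM HEPES pH 7.4 with probenecid; activation reported as pEC50 from four-parameter logistic fit.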

As for `CC(C)c1nn(C)c2cnn(CC(=O)N[C@@H](C)c3ccc(OC(F)(F)F)cc3)c(=O)c12` [Example 50, (S)-2-(3-isopropyl-1-methyl-4-oxo-1,4-dihydro-5H-pyrazolo[3,4-d]pyridazin-5-yl)-N-(1-(4-(trifluoromethoxy)phenyl)ethyl)acetamide], the Ki at human GPR139 receptor [1] is 126 nM. For the same molecule, the EC50 on human GPR139 receptor [2] was 166 nM.

Consider `Cc1ccc([C@H](C)NC(=O)Cn2ncc3c(c(C(C)C)nn3C)c2=O)cc1` [Example 51, (S)-2-(3-isopropyl-1-methyl-4-oxo-1,4-dihydro-5H-pyrazolo[3,4-d]pyridazin-5-yl)-N-(1-(p-tolyl)ethyl)acetamide], for which the Ki on human GPR139 receptor [1] is 135 nM. Moreover, the EC50 on human GPR139 receptor [2] is 32.4 nM.

`CC(C)c1nn(C)c2cnn(CC(=O)N[C@@H](C)c3ccc(C(F)(F)F)cc3)c(=O)c12` [Example 52, (S)-2-(3-isopropyl-1-methyl-4-oxo-1,4-dihydro-5H-pyrazolo-[3,4-d]pyridazin-5-yl)-N-(1-(4-(trifluoromethyl)phenyl)ethyl)acetamide]: the Ki at human GPR139 receptor [1] is 204 nM. On human GPR139 receptor [2], the EC50 is 67.6 nM.

`COc1ccc([C@H](C)NC(=O)Cn2ncc3c(c(C(C)C)nn3C)c2=O)cc1` [Example 53, (S)-2-(3-isopropyl-1-methyl-4-oxo-1,4-dihydro-5H-pyrazolo[3,4-d]pyridazin-5-yl)-N-(1-(4-methoxyphenyl)ethyl)acetamide]: the Ki at human GPR139 receptor [1] is 1020 nM. On human GPR139 receptor [2], the EC50 was 55 nM.

Take `Cc1ccc([C@H](C)NC(=O)Cn2nc(C)c3c(c(C)nn3C(C)C)c2=O)c(F)c1` [Example 54, (S)—N-(1-(2-fluoro-4-methylphenyl)ethyl)-2-(1-isopropyl-3,7-dimethyl-4-oxo-1,4-dihydro-5H-pyrazolo[3,4-d]pyridazin-5-yl)acetamide]: the Ki on human GPR139 receptor [1] was 87.1 nM. On human GPR139 receptor [2], the EC50 is 107 nM.

Consider `Cc1ccc([C@H](C)NC(=O)Cn2nc(C)c3c(c(C)nn3C(C)C)c2=O)cc1` [Example 55, (S)-2-(1-isopropyl-3,7-dimethyl-4-oxo-1,4-dihydro-5H-pyrazolo[3,4-d]pyridazin-5-yl)-N-(1-(p-tolyl)ethyl)acetamide], for which the Ki at human GPR139 receptor [1] is 380 nM. Besides, the EC50 at human GPR139 receptor [2] is 83.2 nM.

As for `Cc1nn(C(C)C)c2c(C)nn(CC(=O)N[C@@H](C)c3ccc(C(F)(F)F)cc3)c(=O)c12` [Example 56, (S)-2-(1-isopropyl-3,7-dimethyl-4-oxo-1,4-dihydro-5H-pyrazolo[3,4-d]pyridazin-5-yl)-N-(1-(4-(trifluoromethyl)phenyl)ethyl)acetamide], at human GPR139 receptor [1], the Ki is 479 nM. In addition, the EC50 on human GPR139 receptor [2] is 214 nM.

Take `COc1ccc([C@H](C)NC(=O)Cn2nc(C)c3c(c(C)nn3C(C)C)c2=O)cc1` [Example 57, (S)-2-(1-isopropyl-3,7-dimethyl-4-oxo-1,4-dihydro-5H-pyrazolo[3,4-d]pyridazin-5-yl)-N-(1-(4-methoxyphenyl)ethyl)acetamide]: the Ki on human GPR139 receptor [1] is 3090 nM. Further, on human GPR139 receptor [2], the EC50 was 132 nM.

On to `Cc1nn(C2CC2)c2c(=O)n(CC(=O)N[C@@H](C)c3ccc(C(F)(F)F)cn3)ncc12` [Example 58, (S)-2-(1-cyclopropyl-3-methyl-7-oxo-1,7-dihydro-6H-pyrazolo[3,4-d]pyridazin-6-yl)-N-(1-(5-(trifluoromethyl)pyridin-2-yl)ethyl)acetamide], for which the Ki at human GPR139 receptor [1] is 1350 nM. In addition, the EC50 on human GPR139 receptor [2] was 74.1 nM.

Consider `Cc1nn(CC(=O)N[C@@H](C)c2ccc(C(F)(F)F)cn2)c(=O)c2c1c(C)nn2C(C)C` [Example 59, (S)-2-(1-isopropyl-3,4-dimethyl-7-oxo-1,7-dihydro-6H-pyrazolo[3,4-d]pyridazin-6-yl)-N-(1-(5-(trifluoromethyl)pyridin-2-yl)ethyl)acetamide], for which the Ki on human GPR139 receptor [1] is 741 nM. In addition, at human GPR139 receptor [2], the EC50 is 347 nM.

As for `Cc1nn(C)c2c(=O)n(CC(=O)N[C@@H](C)c3ccc(C(F)(F)F)cn3)ncc12` [Example 60, (S)-2-(1,3-dimethyl-7-oxo-1,7-dihydro-6H-pyrazolo[3,4-d]pyridazin-6-yl)-N-(1-(5-(trifluoromethyl)pyridin-2-yl)ethyl)acetamide], the Ki on human GPR139 receptor [1] was 30200 nM. In addition, the EC50 at human GPR139 receptor [2] was 214 nM.

Consider `Cc1nn(CC(=O)NC(C)c2ccc3c(c2)CCCO3)c(=O)c2c1c(C)nn2C1CC1` (stereo not shown) [Example 61, N-(1-(chroman-6-yl)ethyl)-2-(1-cyclopropyl-3,4-dimethyl-7-oxo-1,7-dihydro-6H-pyrazolo[3,4-d]pyridazin-6-yl)acetamide], for which the Ki on human GPR139 receptor [1] was 41.7 nM. In addition, on human GPR139 receptor [2], the EC50 is 141 nM.

`Cc1ccc([C@H](C)NC(=O)Cn2ncc3c(c(C)cn3C3CC3)c2=O)cc1F` [Example 62, (S)-2-(1-cyclopropyl-3-methyl-4-oxo-1,4-dihydro-5H-pyrrolo[2,3-d]pyridazin-5-yl)-N-(1-(3-fluoro-4-methylphenyl)ethyl)acetamide]: at human GPR139 receptor [1], the Ki is 2.14 nM. For the same molecule, the EC50 on human GPR139 receptor [2] was 25.1 nM.

Take `Cc1cc(Cl)ccc1[C@H](C)NC(=O)Cn1ncc2c(c(C)cn2C2CC2)c1=O` [Example 63, (S)—N-(1-(4-chloro-2-methylphenyl)ethyl)-2-(1-cyclopropyl-3-methyl-4-oxo-1,4-dihydro-5H-pyrrolo[2,3-d]pyridazin-5-yl)acetamide]: the Ki on human GPR139 receptor [1] is 2 nM. Besides, on human GPR139 receptor [2], the EC50 was 85.1 nM.

With `Cc1cc(C)c([C@H](C)NC(=O)Cn2ncc3c(c(C)cn3C3CC3)c2=O)c(C)c1` [Example 64, (S)-2-(1-cyclopropyl-3-methyl-4-oxo-1,4-dihydro-5H-pyrrolo[2,3-d]pyridazin-5-yl)-N-(1-mesitylethyl)acetamide], the Ki on human GPR139 receptor [1] is 2.09 nM. Also, on human GPR139 receptor [2], the EC50 was 120 nM.

Take `Cc1ccc([C@H](C)NC(=O)Cn2ncc3c(c(C)cn3C3CC3)c2=O)c(C)c1` [Example 65, (S)-2-(1-cyclopropyl-3-methyl-4-oxo-1,4-dihydro-5H-pyrrolo[2,3-d]pyridazin-5-yl)-N-(1-(2,4-dimethylphenyl)ethyl)acetamide]: the Ki on human GPR139 receptor [1] was 3.72 nM. The EC50 at human GPR139 receptor [2] was 67.6 nM.

In the case of `Cc1cn(C2CC2)c2cnn(CC(=O)N[C@@H](C)c3ccc(F)cc3Cl)c(=O)c12` [Example 66, (S)—N-(1-(2-chloro-4-fluorophenyl)ethyl)-2-(1-cyclopropyl-3-methyl-4-oxo-1,4-dihydro-5H-pyrrolo[2,3-d]pyridazin-5-yl)acetamide], the Ki at human GPR139 receptor [1] was 0.794 nM. Also, the EC50 at human GPR139 receptor [2] is 79.4 nM.

Regarding `COc1cc(Cl)ccc1C[C@H](C)NC(=O)Cn1ncc2c(c(C)cn2C2CC2)c1=O` [Example 67, (S)—N-(1-(4-chloro-2-methoxyphenyl)propan-2-yl)-2-(1-cyclopropyl-3-methyl-4-oxo-1,4-dihydro-5H-pyrrolo[2,3-d]pyridazin-5-yl)acetamide], the Ki on human GPR139 receptor [1] is 3.89 nM. The EC50 at human GPR139 receptor [2] was 85.1 nM.

For the molecule `Cc1ccc([C@H](C)NC(=O)Cn2nc(C)c3c(C)nn(C4CC4)c3c2=O)cc1F` [Example 68, (S)-2-(1-cyclopropyl-3,4-dimethyl-7-oxo-1,7-dihydro-6H-pyrazolo[3,4-d]pyridazin-6-yl)-N-(1-(3-fluoro-4-methylphenyl)ethyl)acetamide], the Ki on human GPR139 receptor [1] is 0.347 nM. Also, the EC50 on human GPR139 receptor [2] was 69.2 nM.

In the case of `Cc1ccc([C@H](C)NC(=O)Cn2nc(C)c3c(C)nn(C4CC4)c3c2=O)c(F)c1` [Example 69, (S)-2-(1-cyclopropyl-3,4-dimethyl-7-oxo-1,7-dihydro-6H-pyrazolo[3,4-d]pyridazin-6-yl)-N-(1-(2-fluoro-4-methylphenyl)ethyl)acetamide], the Ki at human GPR139 receptor [1] was 0.447 nM. Also, the EC50 at human GPR139 receptor [2] was 69.2 nM.

For the origin of these results see patent US12370192B2, “Azole-fused pyridazin-3(2H)-one derivatives” (TAKEDA PHARMACEUTICAL COMPANY LIMITED, priority 2019, dated 2025).
